Patent US20090306201A1, “SELECTIVE INHIBITORS FOR TRANSFERASES” (University of Medicine and Dentistry of New Jersey, priority 2006, published 2009)
Structures can show the parent of a compound that is named as a salt. Where two headings read alike, the source gives them in different places.

What was measured:
[1] = target: T1, G9a (Homo sapiens, UniProt Q96KQ7); assay: HKMT-inhibitor (HMT) assay, G9a; format: biochemical, Mammalian; conditions: recombinant HKMT, [3H]SAM, histone octamers or oligonucleosomes, average of duplicate
T1 construct: made in house
T1 sequence (Q96KQ7 1-1210): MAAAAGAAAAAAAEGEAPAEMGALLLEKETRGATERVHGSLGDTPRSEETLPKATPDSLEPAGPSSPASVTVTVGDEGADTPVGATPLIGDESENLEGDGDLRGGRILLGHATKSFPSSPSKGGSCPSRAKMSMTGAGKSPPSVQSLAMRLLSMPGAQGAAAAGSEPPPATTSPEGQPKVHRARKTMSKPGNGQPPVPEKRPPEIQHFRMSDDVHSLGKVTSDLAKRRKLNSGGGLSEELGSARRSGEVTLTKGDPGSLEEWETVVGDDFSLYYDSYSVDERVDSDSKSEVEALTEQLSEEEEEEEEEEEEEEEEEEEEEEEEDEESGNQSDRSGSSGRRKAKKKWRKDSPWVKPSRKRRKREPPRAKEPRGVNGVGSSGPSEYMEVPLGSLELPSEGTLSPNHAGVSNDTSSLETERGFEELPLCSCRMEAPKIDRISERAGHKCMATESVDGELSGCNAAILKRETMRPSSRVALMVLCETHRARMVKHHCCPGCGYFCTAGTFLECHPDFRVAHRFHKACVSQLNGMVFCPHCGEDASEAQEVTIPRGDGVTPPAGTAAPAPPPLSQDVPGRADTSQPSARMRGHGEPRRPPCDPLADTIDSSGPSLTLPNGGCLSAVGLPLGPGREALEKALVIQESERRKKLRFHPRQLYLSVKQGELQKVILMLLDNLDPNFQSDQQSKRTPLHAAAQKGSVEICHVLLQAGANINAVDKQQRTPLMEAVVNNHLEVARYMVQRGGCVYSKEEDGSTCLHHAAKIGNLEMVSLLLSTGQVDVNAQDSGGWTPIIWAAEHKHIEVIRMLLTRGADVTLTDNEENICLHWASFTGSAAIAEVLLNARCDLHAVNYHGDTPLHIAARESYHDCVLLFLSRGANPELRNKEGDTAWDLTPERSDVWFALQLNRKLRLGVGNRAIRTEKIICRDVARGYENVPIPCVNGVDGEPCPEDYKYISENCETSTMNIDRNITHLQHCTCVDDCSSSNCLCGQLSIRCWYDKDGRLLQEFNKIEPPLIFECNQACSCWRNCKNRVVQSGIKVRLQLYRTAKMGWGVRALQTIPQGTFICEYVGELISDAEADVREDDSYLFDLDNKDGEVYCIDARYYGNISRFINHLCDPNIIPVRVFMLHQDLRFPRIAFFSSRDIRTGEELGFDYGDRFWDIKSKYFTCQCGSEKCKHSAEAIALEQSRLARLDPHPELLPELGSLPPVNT
Method: (§1) Compounds were initially screened for their ability to inhibit the activity of various lysine methyltransferases in vitro using a biochemical HMT-assay. Mammalian HKMTs were produced and purified as recombinant affinity-tagged proteins using a bacterial or baculovirus expression system.
(§2) The HKMT-inhibitor assay was as follows: In a final reaction volume of 25 μl, 50-100 ng recombinant HKMT protein was incubated at 30° C. for 60 minutes in a reaction buffer containing 50 mM Tris-HCl, pH 8.5, 5 mM MgCl2, 4 mM DTT, 1 μM [^3H]-labeled S-adenosyl-L-methionine ([^3H]SAM, 82.0 Ci/mmol, 1.0 mCi/ml, Amersham Pharmacia Biotech) and 2 μg of substrate (histone octamers or oligonucleosomes). A constant HKMT protein concentration was tested against increasing amounts of compound dissolved in DMSO. As a control an HKMT-inhibitor assay was performed in the presence of 0.5 μl of DMSO (end concentration of DMSO in the reaction= 2%). The reaction was stopped by the addition of 6 μl 5×SDS sample buffer (60 mM Tris-HCl, pH 6.8, 25% glycerol, 2% SDS, 0.05% bromphenol blue, 14.4 mM 6-Mercaptoethanol), and the proteins were separated on a 12% SDS-polyacrylamide gel. Proteins were transferred onto an Immobilon-P membrane (Millipore) and visualized by Coomassie blue staining. The membrane was then sprayed with EN3HANCE (NEN) and exposed to Kodak XAR film overnight. […]

[2] = target: T2, EZH2 (Homo sapiens, UniProt Q15910); assay: HKMT-inhibitor (HMT) assay, EZH2; format: biochemical, Mammalian; conditions: meaning of the pair not explained
T2 construct: made in house
Method: as §1
The HKMT-inhibitor assay was as follows: In a final reaction volume of 25 μl, 50-100 ng recombinant HKMT protein was incubated at 30° C. for 60 minutes in a reaction buffer containing 50 mM Tris-HCl, pH 8.5, 5 mM MgCl2, 4 mM DTT, 1 μM [^3H]-labeled S-adenosyl-L-methionine ([^3H]SAM, 82.0 Ci/mmol, 1.0 mCi/ml, Amersham Pharmacia Biotech) and 2 μg of substrate (histone octamers or oligonucleosomes). A constant HKMT protein concentration was tested against increasing amounts of compound dissolved in DMSO. As a control an HKMT-inhibitor assay was performed in the presence of 0.5 μl of DMSO (end concentration of DMSO in the reaction= 2%). The reaction was stopped by the addition of 6 μl 5×SDS sample buffer (60 mM Tris-HCl, pH 6.8, 25% glycerol, 2% SDS, 0.05% bromphenol blue, 14.4 mM 6-Mercaptoethanol), and the proteins were separated on a 12% SDS-polyacrylamide gel. Proteins were transferred onto an Immobilon-P membrane (Millipore) and visualized by Coomassie blue staining. The membrane was then sprayed with EN3HANCE (NEN) and exposed to Kodak XAR film overnight. Coomassie blue stained histone bands were cut from the membrane and subjected to scintillation counting. All assays were performed in duplicate and the average of two experiments was used for the calculation of IC50 values. Only compounds with IC50<10 μM were selected for further experiments.

[3] = target: T3, SET7/9 (Homo sapiens, UniProt Q8WTS6); assay: HKMT-inhibitor (HMT) assay, SET7/9; format: biochemical, Mammalian; conditions: recombinant HKMT, [3H]SAM, histone octamers or oligonucleosomes, average of duplicate
T3 construct: made in house
T3 sequence (Q8WTS6 1-366): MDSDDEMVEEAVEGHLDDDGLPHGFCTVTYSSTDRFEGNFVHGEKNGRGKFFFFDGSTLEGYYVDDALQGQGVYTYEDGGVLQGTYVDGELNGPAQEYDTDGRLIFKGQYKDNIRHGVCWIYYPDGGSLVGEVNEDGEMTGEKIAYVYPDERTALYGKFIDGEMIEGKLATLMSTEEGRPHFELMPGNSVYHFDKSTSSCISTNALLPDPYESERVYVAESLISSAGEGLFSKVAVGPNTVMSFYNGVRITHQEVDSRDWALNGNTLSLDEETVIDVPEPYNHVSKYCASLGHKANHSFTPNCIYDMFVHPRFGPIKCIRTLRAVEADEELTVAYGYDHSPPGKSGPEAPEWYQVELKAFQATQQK
Method: as §1, §2

[4] = target: T4, PRSET-7 (Homo sapiens, UniProt Q9NQR1); assay: HKMT-inhibitor (HMT) assay, PRSET-7; format: biochemical, Mammalian; conditions: recombinant HKMT, [3H]SAM, histone octamers or oligonucleosomes, average of duplicate
T4 construct: made in house
T4 sequence (Q9NQR1 1-393): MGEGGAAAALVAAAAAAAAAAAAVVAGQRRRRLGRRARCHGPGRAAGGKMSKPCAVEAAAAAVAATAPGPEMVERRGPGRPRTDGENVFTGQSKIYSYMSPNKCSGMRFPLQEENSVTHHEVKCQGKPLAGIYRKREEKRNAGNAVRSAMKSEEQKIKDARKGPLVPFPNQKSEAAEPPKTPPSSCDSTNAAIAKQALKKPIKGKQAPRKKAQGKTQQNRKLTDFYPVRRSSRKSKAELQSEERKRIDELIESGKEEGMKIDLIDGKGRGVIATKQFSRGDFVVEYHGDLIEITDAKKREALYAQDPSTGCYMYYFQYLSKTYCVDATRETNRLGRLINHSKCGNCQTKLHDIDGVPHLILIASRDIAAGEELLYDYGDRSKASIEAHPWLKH
Method: as §1, §2

[5] = test system: H3K27me3; assay: Global histone lysine methylation pattern in treated cells, immunoblot, other marks (H3K27me3); format: cell-based; conditions: HeLa cells, acid-extracted histones, immunoblotting
Method: (§3) Compounds that show low IC50 values for specific inhibition of single HKMTs were pre-selected for cell culture based toxicity and growth inhibition. HeLa cells were seeded in a concentration of 1×10^5 cell/ml in Dulbecco's modified Eagle medium supplemented with 10% Bovine serum, 2 mM glutamine, and penicillin-streptomycin solution. After 24 hours, the medium was supplemented with various compound concentrations. After an additional 48 hours, cells were harvested. Viable cells were stained with Trypan-Blue and counted. Based on the number of living cells treated with a compound in comparison to the cell number of cells treated with DMSO, a toxicity index was calculated for each compound.
(§4) Compounds with a low toxicity index were used for cell viability tests (FIG. 3). The cells harvested from this cell viability test were analyzed using two techniques. In the first technique, living cells were counted as described above and growth curves plotted for cells treated with DMSO or a given compound. (FIG. 4). In the second technique, histones were isolated from cells upon treatment of compounds, and their effect on global histone lysine methylation patterns was analyzed. Harvested cells were subjected to an acid extraction procedure for histones. […] Histones were resolved by SDS-PAGE, transferred to nitrocellulose, and analyzed by immunoblotting using histone-modification-state specific antibodies.

[6] = test system: global histone H4 lysine 20 monomethylation (H4K20me1); assay: Global histone lysine methylation pattern in treated cells, immunoblot, H4K20me1; format: cell-based; conditions: HeLa cells, acid-extracted histones, immunoblotting
Method: as §3, §4

[7] = first of two values printed as x/y, read-out: IC50 EZH2 (first value of cell)
[8] = second of two values printed as x/y, read-out: IC50 EZH2 (second value of cell)

T2 sequence (Q15910 whole entry, species assumed): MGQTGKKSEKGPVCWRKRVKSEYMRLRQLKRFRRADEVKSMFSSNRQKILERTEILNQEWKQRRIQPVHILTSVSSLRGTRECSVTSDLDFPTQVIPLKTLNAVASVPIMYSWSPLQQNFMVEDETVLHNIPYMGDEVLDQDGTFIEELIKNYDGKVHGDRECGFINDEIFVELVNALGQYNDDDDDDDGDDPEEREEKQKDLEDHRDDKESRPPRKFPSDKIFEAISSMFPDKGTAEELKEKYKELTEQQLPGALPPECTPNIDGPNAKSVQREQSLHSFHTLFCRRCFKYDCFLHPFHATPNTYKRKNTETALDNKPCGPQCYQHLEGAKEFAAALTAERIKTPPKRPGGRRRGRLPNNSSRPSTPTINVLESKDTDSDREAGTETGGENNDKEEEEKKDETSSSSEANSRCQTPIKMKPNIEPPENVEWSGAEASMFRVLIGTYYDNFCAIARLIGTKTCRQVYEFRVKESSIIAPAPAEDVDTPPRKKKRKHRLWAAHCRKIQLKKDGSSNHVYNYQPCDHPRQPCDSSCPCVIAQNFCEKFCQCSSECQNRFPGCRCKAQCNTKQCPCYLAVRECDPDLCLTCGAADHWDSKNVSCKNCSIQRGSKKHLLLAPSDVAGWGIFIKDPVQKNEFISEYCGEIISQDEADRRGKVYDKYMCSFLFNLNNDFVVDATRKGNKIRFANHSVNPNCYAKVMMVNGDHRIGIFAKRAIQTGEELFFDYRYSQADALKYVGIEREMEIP
T2 sequence (O75530 whole entry partner, species assumed): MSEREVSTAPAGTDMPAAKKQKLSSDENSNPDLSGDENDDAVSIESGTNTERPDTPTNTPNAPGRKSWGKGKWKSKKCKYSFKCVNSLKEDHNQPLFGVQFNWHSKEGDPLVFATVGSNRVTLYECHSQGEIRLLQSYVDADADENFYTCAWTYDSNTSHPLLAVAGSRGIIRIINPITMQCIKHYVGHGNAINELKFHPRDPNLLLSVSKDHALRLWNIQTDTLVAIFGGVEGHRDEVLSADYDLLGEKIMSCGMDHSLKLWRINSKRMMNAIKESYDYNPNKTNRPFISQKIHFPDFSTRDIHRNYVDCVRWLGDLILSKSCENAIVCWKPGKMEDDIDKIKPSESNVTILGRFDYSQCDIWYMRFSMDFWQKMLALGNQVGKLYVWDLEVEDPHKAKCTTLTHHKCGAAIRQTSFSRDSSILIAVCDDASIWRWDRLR
T2 sequence (Q15022 whole entry partner, species assumed): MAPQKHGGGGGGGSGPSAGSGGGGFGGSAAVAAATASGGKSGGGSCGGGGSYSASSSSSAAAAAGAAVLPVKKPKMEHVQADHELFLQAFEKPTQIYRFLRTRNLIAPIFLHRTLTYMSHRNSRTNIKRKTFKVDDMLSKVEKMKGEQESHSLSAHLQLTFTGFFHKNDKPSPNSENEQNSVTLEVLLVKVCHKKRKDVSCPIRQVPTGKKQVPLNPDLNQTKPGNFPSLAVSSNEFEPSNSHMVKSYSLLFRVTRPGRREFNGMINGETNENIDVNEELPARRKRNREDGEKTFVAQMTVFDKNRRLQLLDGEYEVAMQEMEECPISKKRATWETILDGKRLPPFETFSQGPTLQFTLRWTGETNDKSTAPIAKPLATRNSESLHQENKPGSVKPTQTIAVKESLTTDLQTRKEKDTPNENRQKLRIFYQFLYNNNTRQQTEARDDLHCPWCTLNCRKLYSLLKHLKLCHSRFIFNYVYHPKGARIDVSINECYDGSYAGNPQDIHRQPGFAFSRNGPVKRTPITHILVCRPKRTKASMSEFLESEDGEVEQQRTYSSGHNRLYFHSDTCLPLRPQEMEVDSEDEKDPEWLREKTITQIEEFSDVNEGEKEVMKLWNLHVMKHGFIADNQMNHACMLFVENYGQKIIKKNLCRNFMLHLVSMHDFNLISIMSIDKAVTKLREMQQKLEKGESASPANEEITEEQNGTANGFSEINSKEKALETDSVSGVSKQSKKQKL

| melting point | IC50 [1] [µM] | IC50 [2, 7] [µM] | IC50 [2, 8] [µM] | IC50 [3] [µM] | IC50 [4] [µM] | Compound | other histone methylation marks (e.g. H3K27me3) [5] | global histone H4 lysine 20 monomethylation (H4K20me1) [6] |
| --- | --- | --- | --- | --- | --- | --- | --- | --- |
| > 250 °C (dec.) | – | – | – | – | – | Nc1ccc2c(O)cc(C(=O)O)cc2c1 (as salt: hydrochloride) [Compound 1a, 7-amino-4-hydroxy-2-naphthoic acid] | – | – |
| > 250 °C (dec.) | – | – | – | – | – | CCOC(=O)c1cc2c3c(cccc3c1)NC(=O)O2 [Compound 6, ethyl 2,3-dihydro-2-oxonaphtho[1,8-de][1,3]oxazine-8-carboxylate] | – | – |
| – | > 500 | 3 | > 1000 | > 1380 | 3.8 | Nc1cc(S(=O)(=O)O)cc2cc(S(=O)(=O)O)cc(O)c12 [H-acid] | – | – |
| – | > 1450 | 25 | 400 | > 1450 | 9 | Cc1cc(O)c(C(C)C)cc1C1(c2cc(C(C)C)c(O)cc2C)OC(=O)c2ccccc21 [Thymolphthalein, thymolphthalein] | not affected | reproducible reduction |
